In the supplement of paper PMC10307832:

What was measured:
Assay in all cases: relative viability (nuclei count vs DMSO), 5 days (fraction); higher = more cells survive
201T = system: 201T
In short: (§1)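 The day after seeding in 1536-well plates, lung cancer cell lines were treated by pin tool with a single drug, or with a fixed anchor-drug dose together with five library-drug doses (not always all listed) in √10 steps. After 5 days, a combined fix-and-stain solution (final 0.05% Triton X-100, 1% formaldehyde, 1 ug/ml Hoechst) was added. Nuclei counted on 4× images gave relative viability as treated counts over vehicle counts, reported as the median of duplicate plates.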

ABC-1 = system: ABC-1
In short: as §1

COR-L 105 = system: COR-L 105
In short: as §1

COR-L23 = system: COR-L23
In short: as §1

EKVX = system: EKVX
In short: as §1

EPLC-272H = system: EPLC-272H
In short: as §1

H3255 = system: H3255
In short: as §1

HCC-15 = system: HCC-15
In short: as §1

HCC-827 = system: HCC-827
In short: as §1

LCLC-103H = system: LCLC-103H
In short: as §1

NCI-H1437 = system: NCI-H1437
In short: as §1

NCI-H1650 = system: NCI-H1650
In short: as §1

NCI-H1651 = system: NCI-H1651
In short: as §1

NCI-H1975 = system: NCI-H1975
In short: as §1

NCI-H2087 = system: NCI-H2087
In short: as §1

NCI-H358 = system: NCI-H358
In short: as §1

NCI-H520 = system: NCI-H520
In short: as §1

NCI-H647 = system: NCI-H647
In short: as §1

NCI-H661 = system: NCI-H661
In short: as §1

NCI-H727 = system: NCI-H727
In short: as §1

UMC-11 = system: UMC-11
In short: as §1

In the case of `O=C(O)CCCCC(CCSCc1ccccc1)SCc1ccccc1` (stereo not drawn) [CPI-613] + COc1cc2c(Oc3ccc(NC(=O)C4(C(=O)Nc5ccc(F)cc5)CC4)cc3F)ccnc2cc1OCCCN1CCOCC1 [Foretinib] (partner 0.25 µM), the relative viability (201T; first compound 5 µM) is reported as 1.12, the relative viability (201T; first compound 15.81 µM) is reported as 1.03 and the relative viability (201T; first compound 50 µM) is reported as 1.11. The relative viability (201T; first compound 158.11 µM) was 0.329, the relative viability (201T; first compound 500 µM) was 0.0557 and the relative viability (ABC-1; first compound 5 µM) was 1.14. It also gave a relative viability (ABC-1; first compound 15.81 µM) of 0.929, a relative viability (ABC-1; first compound 50 µM) of 0.996 and a relative viability (ABC-1; first compound 158.11 µM) of 0.243. The relative viability (ABC-1; first compound 500 µM) was 0.0969, the relative viability (COR-L 105; first compound 5 µM) was 1.11 and the relative viability (COR-L 105; first compound 15.81 µM) was 1.03. The relative viability (COR-L 105; first compound 50 µM) was 1.02, the relative viability (COR-L 105; first compound 158.11 µM) was 0.508 and the relative viability (COR-L 105; first compound 500 µM) was 0.16. For the same molecule, the relative viability (COR-L23; first compound 5 µM) was 0.983, the relative viability (COR-L23; first compound 15.81 µM) was 0.995 and the relative viability (COR-L23; first compound 50 µM) was 0.714. For the same molecule, the relative viability (COR-L23; first compound 158.11 µM) was 0.614, the relative viability (COR-L23; first compound 500 µM) was 0.0368 and the relative viability (EKVX; first compound 5 µM) was 0.83. The relative viability (EKVX; first compound 15.81 µM) was 0.754, the relative viability (EKVX; first compound 50 µM) was 0.983 and the relative viability (EKVX; first compound 158.11 µM) was 0.399. The relative viability (EKVX; first compound 500 µM) was 0.531, the relative viability (EPLC-272H; first compound 5 µM) was 0.613 and the relative viability (EPLC-272H; first compound 15.81 µM) was 0.597. The relative viability (EPLC-272H; first compound 50 µM) was 0.69, the relative viability (EPLC-272H; first compound 158.11 µM) was 0.158 and the relative viability (EPLC-272H; first compound 500 µM) was 0.0081. The relative viability (H3255; first compound 5 µM) was 0.887, the relative viability (H3255; first compound 15.81 µM) was 0.685 and the relative viability (H3255; first compound 50 µM) was 0.89. The relative viability (H3255; first compound 500 µM) was 0.785, the relative viability (HCC-15; first compound 5 µM) was 0.974 and the relative viability (HCC-15; first compound 15.81 µM) was 1. For the same molecule, the relative viability (HCC-15; first compound 50 µM) was 1.01, the relative viability (HCC-15; first compound 158.11 µM) was 0.236 and the relative viability (HCC-15; first compound 500 µM) was 0.039. For the same molecule, the relative viability (HCC-827; first compound 5 µM) was 1.04, the relative viability (HCC-827; first compound 15.81 µM) was 1.02 and the relative viability (HCC-827; first compound 50 µM) was 1. It also gave a relative viability (HCC-827; first compound 158.11 µM) of 0.416, a relative viability (HCC-827; first compound 500 µM) of 0.312 and a relative viability (LCLC-103H; first compound 5 µM) of 0.744. The relative viability (LCLC-103H; first compound 15.81 µM) was 0.757, the relative viability (LCLC-103H; first compound 50 µM) was 0.805 and the relative viability (LCLC-103H; first compound 158.11 µM) was 0.174. For the same molecule, the relative viability (LCLC-103H; first compound 500 µM) was 0.243, the relative viability (NCI-H1437; first compound 5 µM) was 1.22 and the relative viability (NCI-H1437; first compound 15.81 µM) was 1.23. The relative viability (NCI-H1437; first compound 50 µM) was 1.29, the relative viability (NCI-H1437; first compound 158.11 µM) was 0.426 and the relative viability (NCI-H1437; first compound 500 µM) was 0.0461. For the same molecule, the relative viability (NCI-H1650; first compound 5 µM) was 1.35, the relative viability (NCI-H1650; first compound 15.81 µM) was 0.905 and the relative viability (NCI-H1650; first compound 50 µM) was 1.16. It also gave a relative viability (NCI-H1650; first compound 158.11 µM) of 0.0583, a relative viability (NCI-H1650; first compound 500 µM) of 0.0222 and a relative viability (NCI-H1651; first compound 5 µM) of 0.794. For the same molecule, the relative viability (NCI-H1651; first compound 15.81 µM) was 0.838, the relative viability (NCI-H1651; first compound 50 µM) was 0.974 and the relative viability (NCI-H1651; first compound 158.11 µM) was 0.295. For the same molecule, the relative viability (NCI-H1651; first compound 500 µM) was 0.088, the relative viability (NCI-H1975; first compound 5 µM) was 0.943 and the relative viability (NCI-H1975; first compound 15.81 µM) was 0.964. It also gave a relative viability (NCI-H1975; first compound 50 µM) of 0.963, a relative viability (NCI-H1975; first compound 158.11 µM) of 0.713 and a relative viability (NCI-H1975; first compound 500 µM) of 0.151. It also gave a relative viability (NCI-H2087; first compound 5 µM) of 1.09, a relative viability (NCI-H2087; first compound 15.81 µM) of 1.11 and a relative viability (NCI-H2087; first compound 50 µM) of 1.05. It also gave a relative viability (NCI-H2087; first compound 158.11 µM) of 0.0825, a relative viability (NCI-H2087; first compound 500 µM) of 0.0183 and a relative viability (NCI-H358; first compound 15.81 µM) of 0.648. The relative viability (NCI-H358; first compound 50 µM) was 0.713, the relative viability (NCI-H358; first compound 158.11 µM) was 0.369 and the relative viability (NCI-H358; first compound 500 µM) was 0.0356. For the same molecule, the relative viability (NCI-H520; first compound 5 µM) was 0.755, the relative viability (NCI-H520; first compound 15.81 µM) was 0.784 and the relative viability (NCI-H520; first compound 50 µM) was 0.623. For the same molecule, the relative viability (NCI-H520; first compound 158.11 µM) was 0.523, the relative viability (NCI-H520; first compound 500 µM) was 0.142 and the relative viability (NCI-H647; first compound 5 µM) was 0.992. It also gave a relative viability (NCI-H647; first compound 15.81 µM) of 1.2, a relative viability (NCI-H647; first compound 50 µM) of 1.15 and a relative viability (NCI-H647; first compound 158.11 µM) of 0.34. It also gave a relative viability (NCI-H647; first compound 500 µM) of 0.0186, a relative viability (NCI-H661; first compound 5 µM) of 0.982 and a relative viability (NCI-H661; first compound 15.81 µM) of 1.06. It also gave a relative viability (NCI-H661; first compound 50 µM) of 0.841, a relative viability (NCI-H661; first compound 158.11 µM) of 0.371 and a relative viability (NCI-H661; first compound 500 µM) of 0.142. The relative viability (NCI-H727; first compound 5 µM) was 0.854, the relative viability (NCI-H727; first compound 15.81 µM) was 1.39 and the relative viability (NCI-H727; first compound 50 µM) was 0.865. For the same molecule, the relative viability (NCI-H727; first compound 158.11 µM) was 0.572, the relative viability (NCI-H727; first compound 500 µM) was 0.47 and the relative viability (UMC-11; first compound 5 µM) was 0.992. For the same molecule, the relative viability (UMC-11; first compound 15.81 µM) was 1.04, the relative viability (UMC-11; first compound 50 µM) was 0.995 and the relative viability (UMC-11; first compound 158.11 µM) was 0.169. The relative viability (UMC-11; first compound 500 µM) was 0.131.
